Literature values in article PMC9326486, “The Therapeutic Potential of Targeting NIK in B Cell Malignancies” (Frontiers in Immunology, 2022).
Read-outs that look alike come from different tables or passages of the source. Values belong to the molecule of their own block, whether it stands above or below them.

Experiments:
EJM cell line = tested on: EJM cell line; design: method as in PMID 30108985; details: Multiple myeloma, ref [75]
NF-κB gene reporter = tested on: NF-κB gene reporter; design: method as in PMID 30108985; details: ref [75]
SW1990 cell line = tested on: SW1990 cell line; design: method as in PMID 31116887; details: Pancreatic cancer, ref [76]
HEK293 cell line = tested on: HEK293 cell line; design: method as in PMID 28005357; details: ref [74]
primary CLL cells = tested on: primary CLL cells; design: method as in PMID 33495554; details: ref [77]
[1] = tested on: Chronic lymphocytic leukemia Primary cells; design: method as in PMID 33495554; details: ref [77]
CLL cells = tested on: CLL cells; design: method as in PMID 33495554; details: ref [77]
HT-29 cell line = tested on: HT-29 cell line; design: method as in PMID 23374866; details: Colorectal adenocarcinoma, ref [70]
NIK = tested on: NIK; design: method as in PMID 29940120; details: Table 2, inhibitors applied in vivo; WT mice; ref [85]
NZB/W F1 lupus mice = tested on: NZB/W F1 lupus mice; design: method as in PMID 29330524; details: systemic lupus erythematosus mouse model; ref [83]
[2] = tested on: intrahepatic cholangiocarcinoma xenografts; design: method as in PMID 34995376; details: ref [84]
RelA activity = tested on: RelA activity; design: method as in PMID 29330524; details: selectivity for non-canonical NF-κB signaling; ref [83]
WT mice = tested on: WT mice; design: method as in PMID 29330524; details: ref [83]
p100-to-p52 processing = tested on: p100-to-p52 processing; design: method as in PMID 27871061; details: ref [80]
[3] = design: method as in PMID 27871061, PMID 32730745; details: ref [80], [81]
mouse stem cells = tested on: mouse stem cells; design: method as in doi:10.1101/2021.08.26.457753; details: in vitro, ref [86]
WT mice on ethanol diet = tested on: WT mice on ethanol diet; design: method as in PMID 32206109; details: alcoholic liver disease, ref [82]
[4] = tested on: liver-specific NIK overexpression mouse model; design: method as in PMID 27871061; details: intravenous administration, ref [80]
[5] = tested on: L363, KMS11 and JMW1 cell lines Z138 and MAVER-1 cell lines U-2 OS cell line; design: method as in earlier work; details: Multiple myeloma (L363, KMS11, JMW1), mantle cell lymphoma (Z138, MAVER-1), osteosarcoma (U-2 OS) cell lines; ref [71] [72] [73]
[6] = tested on: p52 nuclear translocation; details: in vitro treatment, MCL and context of inflammation; ref [72], [73]
[7] = design: method as in PMID 24980832; details: prevented further in vivo studies; ref [71]
[8] = tested on: non-canonical NF-κB signaling; design: method as in PMID 24980832; details: ref [71]
[9] = higher concentrations (above 0.25µM)

IC50 (EJM cell line): 7.1 to 9.7 µM
Compound: CC(=O)n1nc(C)c(-c2ccc(Cl)c(Cl)c2)c1N [Aminopyrazole 3a]
NF-κB gene reporter assay readout (NF-κB gene reporter; NIK-dependent MM cell line): efficacy | NF-κB gene reporter assay readout (NF-κB gene reporter; two NIK-independent MM cell lines): no significant inhibition

IC50 (SW1990 cell line): 42 to 55.8 µM
Compound: O=C(NC1=CC2OC(c3cccc(NC(=O)c4ccccc4)c3)=NC2C=C1)c1ccccc1 (centres unmarked) [N-(3-(6-benzamido-3a,7a-dihydrobenzo[d]oxazol-2-yl)-phenyl)benzamide]

Compound: Cc1cc([C@](C)(O)C#Cc2cc3c(cc2F)OCCn2cc(C(N)=O)nc2-3)no1 [Compound 10]
IC50 (HEK293 cell line): 0.123 to 0.189 µM

Compound: CC(C)(O)C#Cc1ccc2c(c1)N(c1ccnc(N)n1)CC2 [CW15337]
cell viability (primary CLL cells; concentrations up to 0.25µM): without an effect | canonical NF-κB signaling (primary CLL cells; [9]): partial inhibition | non-canonical NF-κB signaling (primary CLL cells; [9]): full blockade | concentrations resulting in specific non-canonical NF-κB inhibition (primary CLL cells): up to 0.25 µM | IC50 [1]: 0.5 to 1 µM | CD40-mediated drug resistance (CLL cells): abrogated

Compound: Cc1nc2ccc(Cl)cn2c1-c1ccnc(N)n1 [Imidazopyridinyl pyrimidinamine 1]
IC50 (HT-29 cell line): 16 µM

Compound: COc1cc(C(N)=O)nc(-c2cccc(C#C[C@]3(O)CCN(C)C3=O)c2)c1 [NIK SMI1]
germinal center B cell and plasma cell differentiation (NZB/W F1 lupus mice): inhibited | mortality (NZB/W F1 lupus mice): significantly reduced | IC50 (primary B cells; Table 2, inhibitors applied in vivo, ref [83] [84]): 0.109 to 0.269 µM | in vitro IC50 value (primary B cells; primary B cells, ref [83]): nanomolar range | tumor cell proliferation ([2]; in vivo and in vitro, intrahepatic cholangiocarcinoma): […] | tolerance (weight loss, blood test results) ([2]; mouse intrahepatic cholangiocarcinoma xenografts): good tolerance | RelA activity (RelA activity): not affected | B cell survival (WT mice; WT mice, dose-dependent): reduction of marginal zone and follicular B cells | serum IgA levels (WT mice; WT mice): reduced | in vivo immune responses (germinal center development, IgG1 production, effector/memory T cell generation) (WT mice; mice): […]

Compound: CC(O)(C#Cc1ccc2c(c1)N(c1nc(N)ncc1Cl)CC2)c1nccs1 (centres unmarked) [B022]
p100-to-p52 processing (p100-to-p52 processing): inhibition | in vivo pharmacokinetic properties [3]: bad | adipogenesis (mouse stem cells): prevented adipogenesis | cytoplasmic RelA phosphorylation levels (mouse stem cells): reduce | non-canonical NF-κB signaling (mouse stem cells): inhibited | alcoholic steatosis (WT mice on ethanol diet): alleviated alcoholic steatosis | death as a result of liver inflammation and injury [4]: completely abrogated death

IC50 [5]: 0.417 to 2.52 µM
Compound: Nc1ncc(Cl)c(N2CCc3ccc(C#CC4(O)CCCC4)cc32)n1 [Amgen16]
p52 nuclear translocation [6]: Inhibition of p52 nuclear translocation | pharmacokinetic properties [7]: poor | effect on non-canonical NF-κB signaling ([8]; MM cell lines with mutations activating non-canonical NF-κB signaling independent of NIK): not affected | effect on non-canonical NF-κB signaling ([8]; NIK-dependent MM cell lines): inhibition of non-canonical NF-κB signaling
